Test results reported in PubChem BioAssay AID1996.
In brackets after ≈: the same amount, converted by molar mass.

Conditions: buffer; pH 7.4; 200.0 µM

| SMILES | solubility kinetic [µg/mL] |
| --- | --- |
| O=[N+]([O-])c1ccc(Cl)cc1N1CCCCC1 | < 0.3 |
| O=C(Nc1ccc(Cl)cn1)c1cccc2ccccc12 | 1.3 (≈ 4.6 µM) |
| O=C(NC(=O)C(F)(F)F)Nc1ccc(S(=O)(=O)Nc2nccs2)cc1 | > 59.2 |
| CN1C(=S)SC(/[N+]([O-])=C/c2c(F)cccc2Cl)C1(C)C (stereo not drawn) | > 49.9 |
| O=[N+]([O-])/C(=C\Nc1ccc(F)cc1F)S(=O)(=O)c1ccccc1 | > 51 |
| COc1ccc(S(=O)(=O)NC2CCCC2)cc1Cl | > 43.5 |
| O=C1CC2(CCN(C(=O)c3cccc(F)c3)CC2)Oc2ccccc21 | > 50.9 |
| CCC(C)NC(=O)[C@@H]1CSC2c3ccccc3C(=O)N21 (stereo partly drawn) | > 43.6 |
| CN(CC(=O)Nc1ccccc1Cl)C(=O)COC(=O)c1ccc([N+](=O)[O-])s1 | > 61.8 |
| O=C(Nc1cccc(S(=O)(=O)N2CCCCC2)c1)c1cc(=O)[nH]c2ccccc12 | 9.2 (≈ 22.4 µM) |
| O=C(/C=C/c1ccccc1)NC(=S)Nc1ccccc1 | < 0.3 |
| CC(=O)N/C(=N\c1nc(C)cc(C)n1)Nc1ccccc1Cl | 0.5 (≈ 1.57 µM) |
| Cc1ccc(NC(=O)CCN2C(=O)NC(C)(C)C2=O)cc1F | > 46.1 |
| Cc1cc(C)c2cc(C(=O)N3CCC(Cc4ccccc4)CC3)[nH]c2c1 | < 0.4 |
| O=C(O)CC1c2ccccc2CCN1S(=O)(=O)c1ccccc1 (stereo not drawn) | > 49.7 |
| COc1ccc(-c2ncncc2-c2ccc(Cl)cc2)c(O)c1 | 1.1 (≈ 3.52 µM) |
| Cn1c(N)c(C(=O)COC(=O)Cc2ccccc2F)c(=O)n(C)c1=O | 24.2 (≈ 69.3 µM) |
| Cc1ccc(CN2CCN(c3cccc4[nH]ccc34)CC2)cc1 | 41.2 (≈ 135 µM) |
| O=S(=O)(Nc1ccccc1Cl)c1ccc(-c2ccccn2)s1 | 35.8 (≈ 102 µM) |
| CCOC(=O)C1CCN(C(=O)c2cc3cc(F)ccc3[nH]2)CC1 | 32.4 (≈ 102 µM) |

| SMILES | solubility kinetic [µg/mL] |
| --- | --- |
| CCN(CC)CCOC(=O)c1ccc([N+](=O)[O-])cc1.Cl | > 45.4 |
| Cc1nccc(-c2ccc(-n3c(C)ccc3C)cc2)n1 | 33 (≈ 125 µM) |
| O=C(N/C(=C\c1ccccc1)C(=O)N1CCCCC1)c1ccc(Br)o1 | > 60.5 |
| Cl.c1ccc([C@H]2CN3CCSC3=N2)cc1 | > 36.1 |
| Cc1ccsc1C(=O)NCCc1ccco1 | 33.5 (≈ 142 µM) |
| O=C(COC(=O)c1cnccn1)NC1CCCc2ccccc21 (stereo not drawn) | > 46.7 |
| CCOc1ccccc1NC(=S)NC(=O)CCc1ccccc1 | < 0.4 |
| COc1ccc(C(=O)NCCCNC(=O)c2ccc(C)nc2)cc1 | > 49.1 |
| Cc1cn(CCC(=O)Nc2ccc(N3CCOCC3)cc2)c2ccccc12 | 46.7 (≈ 128 µM) |
| Cc1cc(OCCCCCn2ccnc2)cc(C)c1Cl.Cl | 23.1 |
| Fc1ccccc1-c1nc2nc3ccccc3nc2n1CC1CCCO1 (stereo not drawn) | > 52.3 |
| COc1ccccc1OCC(=O)OCC(=O)NC1CCCCC1 | > 48.2 |
| CNC(=O)c1cc(OCC(F)(F)F)ccc1OCC(F)(F)F | 49.6 (≈ 150 µM) |
| O=C(Nc1cccc2ncccc12)c1ccc([N+](=O)[O-])o1 | > 42.5 |
| NS(=O)(=O)c1ccc(NC(=O)COC(=O)c2ccc(S(=O)(=O)N3CCOCC3)cc2)cc1 | 13 (≈ 26.9 µM) |
| COc1ccc(Cl)cc1C(=O)OCC(=O)N1CCCC(C)C1 (stereo not drawn) | > 48.9 |
| CS(=O)(=O)N(CC(=O)Nc1c(F)cccc1F)Cc1ccccc1 | > 53.2 |
| Cc1cccc2c(SCC(N)=O)nc(-c3ccccc3)nc12 | < 0.2 |
| CCOC(=O)C1CCN(C(=O)c2cc3cc(Cl)ccc3[nH]2)CC1 | 19 (≈ 56.7 µM) |
| O=S(=O)(c1ccc2ccccc2c1)N1CCN(c2ccc(O)cc2)CC1 | 4.6 (≈ 12.5 µM) |

| SMILES | solubility kinetic [µg/mL] |
| --- | --- |
| N#C/C(=C\c1cccc(Oc2ccccc2)c1)C(=O)N1CCOCC1 | 42.5 (≈ 127 µM) |
| CC(O)c1nc2ccccc2n1CCCOc1ccccc1 (stereo not drawn) | > 44.5 |
| COc1ccccc1/C=C/C(=O)OCC(=O)NCc1ccc2c(c1)OCO2 | 6.3 (≈ 17.1 µM) |
| OCC1(CCCc2ccccc2)CCN(C2CCC2)CC1 | > 43.1 |
| CC(=O)N1CCN(c2ccc(NC(=O)c3cccc(C)c3)cc2)CC1 | 7.7 (≈ 22.8 µM) |
| CC(=O)Nc1ccc(SCC(=O)Nc2sccc2C#N)cc1 | 26.5 (≈ 80 µM) |
| Cc1ccccc1CNS(=O)(=O)c1csc(C(N)=O)c1 | > 46.6 |
| O=C(NCCc1ccncc1)Nc1ccc(Cl)c(Cl)c1 | > 46.5 |
| CCOC(=O)C1=C(c2ccccc2)NC(=O)NC1c1cccc(OC)c1OC (stereo not drawn) | > 57.4 |
| COc1ccc(C(=O)COC(=O)/C=C/c2ccccc2[N+](=O)[O-])cc1 | 10.2 (≈ 29.9 µM) |
| CCOc1ccc(NC(=O)c2cc(Cl)nc3ccccc23)cc1 | 0.4 (≈ 1.22 µM) |
| COc1cc(NC(=O)COC(=O)c2cc(S(=O)(=O)N3CCOCC3)ccc2F)cc(OC)c1 | 34.2 (≈ 70.9 µM) |
| Cc1ccccc1OCCNC(=O)c1ccco1 | > 36.8 |
| COc1ccc(S(=O)(=O)c2c[nH]c(=S)[nH]c2=O)cc1Cl | > 49.9 |
| CN1CCN(S(=O)(=O)c2csc(C(N)=O)c2)CC1 | > 43.4 |
| O=[N+]([O-])c1ccc(S(=O)(=O)NCCCc2ccccc2)cc1 | 28 (≈ 87.4 µM) |
| CS(=O)(=O)c1ccccc1C(=O)NC1CCCc2ccccc21 (stereo not drawn) | > 49.4 |
| COc1ccccc1NC(=O)Nc1cccc(C)n1 | 0.4 (≈ 1.55 µM) |
